The values that follow come from US20190100534A1, “Cephem Compounds with Latent Reactive Groups” (Gladius Pharmaceuticals, Inc., priority 2017, published 2019).

Common to all, as to type: cell-based
In assay [1] the test system is Pseudomonas aeruginosa (PA). The assay can be described thus: MIC determination. The following applies: PA, CAMH broth, 20 μM Apo-Transferrin, 37° C., 18 hours. In a few lines: (§1)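 Broth microdilution in CAMH + 20 μM apo-transferrin; inoculum 0.5 McFarland, used within 30 min. Compound 64→0.125 μg/mL, twofold steps. 37 °C, 18 h. MIC = lowest clear-well concentration.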

For assay [2], the system named is Pseudomonas aeruginosa PA (RR-1). As to the kind of experiment: MIC determination. The following applies: PA (RR-1), CAMH broth, 20 μM Apo-Transferrin, 37° C., 18 hours. In a few lines: as §1
Assay [3] relates to Pseudomonas aeruginosa PA (RR-2). As to the kind of experiment: MIC determination. The following applies: PA (RR-2), CAMH broth, 20 μM Apo-Transferrin, 37° C., 18 hours. Summed up:
as §1

The test system of assay [4] is Pseudomonas aeruginosa PA (URMC-2). As to the kind of experiment: MIC determination. As to conditions: PA (URMC-2), CAMH broth, 20 μM Apo-Transferrin, 37° C., 18 hours. Summed up:
as §1

For assay [5], the system named is Pseudomonas aeruginosa PA (URMC-3). As to the kind of experiment: MIC determination. The following applies: PA (URMC-3), CAMH broth, 20 μM Apo-Transferrin, 37° C., 18 hours. Summed up: as §1
Assay [6] deals with Pseudomonas aeruginosa PA-RR-(980151052). The assay can be described thus: MIC determination. As to conditions: PA-RR-(980151052), CAMH broth, 20 μM Apo-Transferrin, 37° C., 18 hours. In a few lines:
as §1

The subject of assay [7] is Pseudomonas aeruginosa PA-RR-(98023895). The assay can be described thus: MIC determination. The following applies: PA-RR-(98023895), CAMH broth, 20 μM Apo-Transferrin, 37° C., 18 hours. In a few lines: as §1
Assay [8] relates to Pseudomonas aeruginosa PA-RR-(G7294437). The assay can be described thus: MIC determination. As to conditions: PA-RR-(G7294437), CAMH broth, 20 μM Apo-Transferrin, 37° C., 18 hours. Summed up:
as §1

Assay [9] relates to Pseudomonas aeruginosa PA-RR-(G7304100). As to the kind of experiment: MIC determination. As to conditions: PA-RR-(G7304100), CAMH broth, 20 μM Apo-Transferrin, 37° C., 18 hours. Summed up: as §1
For assay [10], the system named is Pseudomonas aeruginosa PA-RR-(G7305586). As to the kind of experiment: MIC determination. As to conditions: PA-RR-(G7305586), CAMH broth, 20 μM Apo-Transferrin, 37° C., 18 hours. Summed up:
as §1

In a further assay the test system is E. coli J53 Alone. As to the kind of experiment: MIC determination, isogenic E. coli strains. The following applies: for Mimimum Inhibitory Concentrations, J53 Alone: CAMH broth, 20 μM Apo-Transferrin, 37° C., 18 hours. In a few lines:
(§2)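 MIC read as the lowest compound level giving a transparent well after 18 h at 37° C. Strains: parent E. coli J53 and isogenic transformants expressing plasmid-borne (pBC-SK(+)) beta-lactamases such as DHA-1; inoculum 0.5 McFarland; CAMH broth plus 20 μM apo-transferrin; compound 64 μg/mL downward, 2-fold dilutions.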

In assay [11] the test system is Isogenic E. coli J58 strain carrying DHA-1. As to the kind of experiment: MIC determination, isogenic E. coli strains. Summed up: as §2
The test system of assay [12] is Isogenic E. coli J58 strain carrying TEM-26. The assay can be described thus: MIC determination, isogenic E. coli strains. In a few lines:
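E. coli J53 carried a pBC-SK(+) plasmid expressing TEM-26 β-lactamase. Compounds were serially halved from […] in CAMH broth containing 20 μM apo-transferrin, inoculated from a 0.5 McFarland culture and held overnight (18 h, 37° C); MIC read as the lowest concentration without visible growth.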

The test system of assay [13] is Isogenic E. coli J58 strain carrying CTX-M-14. The assay can be described thus: MIC determination, isogenic E. coli strains. Summed up:
(§3)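 Isogenic E. coli J53 carrying plasmid-encoded CTX-M-14 or CTX-M-15 (ampicillin-selected), standardized to 0.08-0.1 OD600, incubated overnight (18 h, 37° C.) in CAMH broth plus 20 μM apo-transferrin over 2-fold compound dilutions starting at 64 μg/mL. Lowest concentration with no visible growth recorded as MIC.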

Assay [14] has as its system Isogenic E. coli J58 strain carrying CTX-M-15. As to the kind of experiment: MIC determination, isogenic E. coli strains. In a few lines: as §3
Assay [15] has as its system Isogenic E. coli J58 strain carrying NDM-1. As to the kind of experiment: MIC determination, isogenic E. coli strains. In a few lines:
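Broth microdilution was run in cation-adjusted Mueller-Hinton broth supplemented with 20 μM apo-transferrin, using a 64 μg/mL top concentration diluted twofold. The inoculum was NDM-1-expressing E. coli J53 (pBC-SK(+) plasmid) at 0.5 McFarland. After overnight incubation (18 h, 37° C), the lowest compound concentration preventing visible growth was recorded as the MIC.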

Assay [16] deals with Isogenic E. coli J58 strain carrying VIM-2. As to the kind of experiment: MIC determination, isogenic E. coli strains. Summed up: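 Broth microdilution in cation-adjusted Mueller-Hinton with 20 μM apo-transferrin, compound serially halved from 64 μg/mL, read by eye after 18 h at 37 °C as lowest clear well. Inoculum: VIM-2-expressing E. coli J53 (pBC-SK(+) plasmid), adjusted to 0.5 McFarland.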

In the case of `CC(C)(O/N=C(\C(=O)N[C@@H]1C(=O)N2C(C(=O)O)=C(C=Cc3ccc(C[n+]4ccc5cc(O)c(O)cc5c4)cc3)CS[C@H]12)c1csc(N)n1)C(=O)O` (mixture of isomers) [Compound 435, 2-(4-((E/Z)-2-((6R,7R)-7-((Z)-2-(2-aminothiazol-4-yl)-2-(((2-carboxypropan-2-yl)oxy)imino)acetamido)-2-carboxy-8-oxo-5-thia-1-azabicyclo[4.2.0]oct-2-en-3-yl)vinyl)benzyl)-6,7-dihydroxyisoquinolin-2-ium], the “Minimum Inhibitory Concentrations, PA” value in assay [1] is recorded as ≤0.06 microgram/mL. Besides, in assay [2], the “Minimum Inhibitory Concentrations, PA (RR-1)” value is recorded as 0.25 microgram/mL. The “Minimum Inhibitory Concentrations, PA (RR-2)” value in assay [3] is recorded as ≤0.06 microgram/mL. For the same molecule, the “Minimum Inhibitory Concentrations, PA (URMC-2)” value in assay [4] was 0.25 microgram/mL. Moreover, the “Minimum Inhibitory Concentrations, PA (URMC-3)” value in assay [5] is listed as ≤0.06 microgram/mL. In addition, the “Minimum Inhibitory Concentrations, PA-RR-(980151052)” value in assay [6] was determined as 0.13 microgram/mL. Moreover, the “Minimum Inhibitory Concentrations, PA-RR-(98023895)” value in [7] was determined as 1 microgram/mL. Further, in assay [8], the “Minimum Inhibitory Concentrations, PA-RR-(G7294437)” value is reported as ≤0.06 microgram/mL. Moreover, the “Minimum Inhibitory Concentrations, PA-RR-(G7304100)” value in assay [9] was ≤0.06 microgram/mL. Besides, the “Minimum Inhibitory Concentrations, PA-RR-(G7305586)” value in assay [10] amounted to 0.25 microgram/mL. In addition, the “Mimimum Inhibitory Concentrations, J53 Alone” value in the assay with E. coli J53 Alone (Table 4-1) and in the assay with E. coli J53 Alone (Table 4-2) was ≤0.06 microgram/mL throughout. In addition, in assay [11] (isogenic E. coli strain, DHA-1, CAMH broth, 20 μM Apo-Transferrin, 37° C., 18 hours), the “Mimimum Inhibitory Concentrations, DHA-1” value was ≤0.06 microgram/mL. Moreover, in assay [12] (isogenic E. coli strain, TEM-26, CAMH broth, 20 μM Apo-Transferrin, 37° C., 18 hours), the “Mimimum Inhibitory Concentrations, TEM-26” value is listed as ≤0.06 microgram/mL. Also, the “Mimimum Inhibitory Concentrations, CTX-M-14” value in assay [13] (isogenic E. coli strain, CTX-M-14, CAMH broth, 20 μM Apo-Transferrin, 37° C., 18 hours) is reported as ≤0.06 microgram/mL. The “Mimimum Inhibitory Concentrations, CTX-M-15” value in [14] (isogenic E. coli strain, CTX-M-15, CAMH broth, 20 μM Apo-Transferrin, 37° C., 18 hours) is on record as ≤0.06 microgram/mL. For the same molecule, the “Mimimum Inhibitory Concentrations, NDM-1” value in assay [15] (isogenic E. coli strain, NDM-1, CAMH broth, 20 μM Apo-Transferrin, 37° C., 18 hours) was determined as 2 microgram/mL. Besides, in [15] (review of Tables 4-1 and 4-2), the “MICs for an E. coli strain carrying the gene for NDM-1, in words” value is recorded as “lower MICS compared to other compounds tested”. The “Mimimum Inhibitory Concentrations, VIM-2” value in [16] (isogenic E. coli strain, VIM-2, CAMH broth, 20 μM Apo-Transferrin, 37° C., 18 hours) is listed as ≤0.06 microgram/mL. Moreover, the “MICs for an E. coli strain carrying the gene for carbapenemase VIM-1, in words” value in assay [16] (review of Tables 4-1 and 4-2) is on record as “low microgram/mL MICs”.
`CC(C)(O/N=C(\C(=O)N[C@@H]1C(=O)N2C(C(=O)O)=C(C=Cc3ccc(C[N+](C)(C)Cc4cc(O)c(O)c(Cl)c4)cc3)CS[C@H]12)c1csc(N)n1)C(=O)O` (mixture of isomers) [Compound 436, N-(4-((E/Z)-2-((6R,7R)-7-((Z)-2-(2-aminothiazol-4-yl)-2-(((2-carboxypropan-2-yl)oxy)imino)acetamido)-2-carboxy-8-oxo-5-thia-1-azabicyclo[4.2.0]oct-2-en-3-yl)vinyl)benzyl)-1-(3-chloro-4,5-dihydroxyphenyl)-N,N-dimethylmethanaminium]: the MIC in [1] (Pseudomonas aeruginosa, read-out: Minimum Inhibitory Concentrations, PA) amounted to 8 µg/mL; in assay [2] (Pseudomonas aeruginosa, read-out: Minimum Inhibitory Concentrations, PA (RR-1)), 2 µg/mL; in [3] (Pseudomonas aeruginosa, read-out: Minimum Inhibitory Concentrations, PA (RR-2)), 4 µg/mL; in assay [4] (Pseudomonas aeruginosa, read-out: Minimum Inhibitory Concentrations, PA (URMC-2)), 8 µg/mL; in assay [5] (Pseudomonas aeruginosa, read-out: Minimum Inhibitory Concentrations, PA (URMC-3)), 64 µg/mL; in [6] (Pseudomonas aeruginosa, read-out: Minimum Inhibitory Concentrations, PA-RR-(980151052)) it was 4 µg/mL. In addition, the MIC in assay [7] (Pseudomonas aeruginosa, read-out: Minimum Inhibitory Concentrations, PA-RR-(98023895)) was 4 µg/mL; in assay [8] (Pseudomonas aeruginosa, read-out: Minimum Inhibitory Concentrations, PA-RR-(G7294437)), 0.5 µg/mL; in [9] (Pseudomonas aeruginosa, read-out: Minimum Inhibitory Concentrations, PA-RR-(G7304100)), 4 µg/mL; in assay [10] (Pseudomonas aeruginosa, read-out: Minimum Inhibitory Concentrations, PA-RR-(G7305586)), 8 µg/mL; in the assay on E. coli J53 Alone (Escherichia coli, J53ALONE, 18 h, read-out: Mimimum Inhibitory Concentrations, J53 Alone) it was 0.13 µg/mL; in assay [11] (Escherichia coli, 18 h, read-out: Mimimum Inhibitory Concentrations, DHA-1), 0.25 µg/mL. For the same molecule, the MIC in assay [12] (Escherichia coli, 18 h, read-out: Mimimum Inhibitory Concentrations, TEM-26) is 2 µg/mL; in [13] (Escherichia coli, 18 h, read-out: Mimimum Inhibitory Concentrations, CTX-M-14), 1 µg/mL; in [14] (Escherichia coli, 18 h, read-out: Mimimum Inhibitory Concentrations, CTX-M-15), 0.5 µg/mL; in assay [15] (Escherichia coli, 18 h, read-out: Mimimum Inhibitory Concentrations, NDM-1), > 64 µg/mL; in assay [16] (Escherichia coli, 18 h, read-out: Mimimum Inhibitory Concentrations, VIM-2), 1 µg/mL. The “Mimimum Inhibitory Concentrations, J53 Alone” value in the assay on E. coli J53 Alone (Table 4-2) came to 0.13 microgram/mL.
